We go through 11 compounds from patent US4755594A, “N^6 -substituted adenosines” (Warner-Lambert Company, priority 1986, dated 1988).

One assay addresses T1, adenosine A2 receptor (Rattus norvegicus, UniProt P30543).
T1 construct: Brains were thawed and then kept on ice while the striata were dissected out; tissue Pel-Freez (Rogers, Ark.); host or cells: striata of Sprague-Dawley rats (Long-Evans hooded rats gave essentially identical results)
Briefly: Adenosine Receptor Binding--A2 Receptor Affinity (RBA2), [3H]NECA, striatal membranes. The settings on record: read-out: RBA-2 IC50. How it is done:
Adenosine Receptor Binding--A2 Receptor Affinity (RBA2)
Brains from 200-500 g mixed sex Sprague-Dawley rats were purchased from Pel-Freez (Rogers, Ark.). Fresh brains from male Long-Evans hooded rats (Blue Spruce Farms, Altamont, NY) gave essentially identical results. Brains were thawed and then kept on ice while the striata were dissected out. Striata were disrupted in 10 vol of ice-cold 50 mM Tris.HCl (pH 7.7 at 25° C., pH 8.26 at 5° C.) (Tris) for 30 seconds in a Polytron PT-10 (Brinkmann) at setting 5. The suspension was centrifuged at 50,000 xg for ten minutes, the supernatant discarded, the pellet resuspended in 10 vol ice-cold Tris as above, recentrifuged, resuspended at 1 g/5ml, and stored in plastic vials at -70° C. (stable for at least six months). When needed, tissue was thawed at room temperature, disrupted in a Polytron, and kept on ice until used.
All incubations were for 60 minutes at 25° C. in 12×75 mm glass tubes containing 1 ml Tris with 5 mg original tissue weight of rat weight of rat striatal membranes, 4 nM [^3 H]--N-ethyl adenosine-5'-carboxamide ([^3 H]NECA), 50 nM N^6 -cyclopentyladenosine (to eliminate A1 receptor binding), 10 mM MgCl2, 0.1 units/ml of adenosine deaminase and 1% dimethylsulfoxide. N^6 -Cyclopentyladenosine was dissolved at 10 mM in 0.02N HCl and diluted in Tris. Stock solutions and dilutions of N^6 -cyclopentyladenosine could be stored at -20° C. for several months. Test compounds were dissolved at 10 mM in dimethylsulfoxide on the same day as the experiment, and diluted in dimethylsulfoxide to 100×the final incubation concentration. Control incubations received an equal volume (10 μl) of dimethylsulfoxide; the resulting concentration of dimethylsulfoxide had no effect on binding. [^3 H]NECA was diluted to 40 nM in Tris. The membrane suspension (5 mg/0.79 ml) contained sufficient MgCl2 and adenosine deaminase to give 10 mM and 0.1 units/ml, respectively, final concentration in the incubation. […] After all additions, the rack of tubes was vortexed, and the tubes were then incubated for 60 min at 25° C. in a shaking water bath. The rack of tubes was vortexed an additional time halfway through the incubation.
Incubations were terminated by filtration through 2.4 cm GF/B filters under reduced pressure. Each tube was filtered as follows: the contents of the tube were poured on the filter, 4 ml of ice-cold Tris were added to the tube and the contents poured onto the filter, and the filter was washed twice with 4 ml of ice-cold Tris. The filtration was complete in about twelve seconds. Filters were put in scintillation vials, 8 ml of Formula 947 scintillation fluid added, and the vials left overnight, shaken, and counted in a liquid scintillation counter at 40% efficiency.
Nonspecific binding was defined as binding in the presence of 100 μM N^6 -cyclopentyladenosine, and specific binding was defined as total binding minus nonspecific binding. The IC50 was calculated by weighted nonlinear least squares curve-fitting to the mass-action equation. [formula] where Y is cpm bound
T is cpm total binding without drug
S is cpm specific binding without drug
D is the concentration of drug and
K is the IC50 of the drug
Weighting factors were calculated under the assumption that the standard deviation was proportional to the predicted value of Y. Nonspecific binding was treated as a very large (infinite) concentration of drug in the computer analysis.

The nature of assay [1]: Antihypertensive evaluation (AHP3), aortic blood pressure in conscious rats. The class given is in vivo. The settings on record: conscious rat. The source says:
ANTIHYPERTENSIVE EVALUATION (AHP3)
This test procedure is described in the following paragraphs.
A Method for the Direct Monitoring of Aortic Blood
Pressure and Heart Rate from Conscious Rats
The continuous monitoring of pulsatile blood pressure (BP) from unrestrained conscious rats surgically equipped with polyethylene cannulas was accomplished by means of a computer assisted data capture scheme (CADCS). The basic elements of the methodology are the cannulation procedure and the CADCS.
Rats were anesthetized with Telazol (1:1 tiletamine HCl and zolazepam HCl); 20-40 mg/kg IM and the descending aorta exposed via a midline incision. Cannulas fabricated from polyethylene tubing were inserted into the aorta via an undersized puncture hole below the renal arteries. The puncture hole was made by a 23 G disposable needle with a section of the aorta clamped off above and below the puncture site. The cannulas, consisting of a PE100 (0.86 mm ID) body and a PE50 (0.58 mm ID) tip, were attached to a trocar, inserted through the psoas muscle, and passed subcutaneously along the midline of the back and externalized between the ears. The cannulas were anchored to the psoas muscle and between the scalulae (3-0 green braided suture). The midline incision was closed in two steps (muscle first, skin second) using continuous over-and-over sutures (4-0 chronic). Each rat was then given penicillin 30,000 units subcutaneously (Penicillin G Procaine Sterile Suspension).
The rats were fitted with a harness-spring-swivel assembly designed to protect the cannula and to provide the rat relative freedom of movement. The harnesses were fabricated from nylon hook and loop tape cemented to a metal plate to which spring wires (18-8 stainless steel) were attached to brass swivels. Each polyethylene cannula was channeled through a spring and connected through a swivel to a pressure transducer (Model P23Gb; Statham Instruments; Hato Rey, Puerto Rico) and an infusion pump (Sage model 234-7; Orion Research, Cambridge MA) by means of PE100 tubing. While on test, each rat received a continuous slow infusion of heparinized saline solution (approximately 400 μl or 40 units of heparin per 24 hours period) to prevent clot formation. Additional "flushes" of the cannula with heparinized saline were carried out when the aortic pulse pressure (systolic minus diastolic) was less than 25 mm Hg.
The pulsatile blood pressure and heart rate of each of 32 rats was monitored every minute by means of two in-laboratory microcomputers communicating directly with a data concentrator computer. The data were first stored on the data concentrator disk and then transferred to a magnetic tape for analysis and report generation by the main research computer. The overall scheme involved modulating the primary signal from the pressure transducer, generating the primary data set of the one-minute values for systolic, diastolic, and mean blood pressures and heart rate by the in-lab microcomputer and the storage, analysis, and report generation by the main research computer.
The transducers were connected to analog signal conditioning modules. The modules provided a regulated excitation voltage for the transducers, amplification as required to interface the microprocessors and an active low pass filter to compensate for the pressure wave form distortion produced by the flexible, fluid filled, narrow cannula. The distortion was 22-26 Hz and this provided a reliable estimate of both systolic and diastolic blood pressure.
The microcomputers (one for each of two groups of 16 rats) were connected to the input components through the module interface units, an analog-to-digital converter for the pressure wave form signal and the digital inputs for the dose and event marker switches. The microcomputer controlled the sequential acquisition of data from the modular interface units through an internal synchronous time-of-day clock/time base generator. […]

T1 sequence (P30543 whole entry): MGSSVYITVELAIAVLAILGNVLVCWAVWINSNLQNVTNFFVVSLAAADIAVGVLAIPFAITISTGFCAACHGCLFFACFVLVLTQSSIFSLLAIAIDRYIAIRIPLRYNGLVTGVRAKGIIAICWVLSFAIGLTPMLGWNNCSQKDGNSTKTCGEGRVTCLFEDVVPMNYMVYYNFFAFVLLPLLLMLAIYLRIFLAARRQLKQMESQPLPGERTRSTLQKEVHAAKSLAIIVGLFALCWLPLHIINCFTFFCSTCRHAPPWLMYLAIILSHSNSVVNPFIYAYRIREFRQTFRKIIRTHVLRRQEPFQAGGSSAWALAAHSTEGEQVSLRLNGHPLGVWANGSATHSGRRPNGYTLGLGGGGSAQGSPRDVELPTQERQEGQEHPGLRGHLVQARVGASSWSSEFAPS

As to `OC[C@H]1O[C@@H](n2cnc3c(NCC4(c5ccccc5)CC4)ncnc32)[C@H](O)[C@@H]1O` [Example 1, N6-((1-Phenylcyclopropyl)methyl)adenosine], the IC50 at adenosine A2 receptor was 80 nM. In addition, the “Maximum BP ↓ MAP” value in assay [1] (1 mg/kg) is 13%; in assay [1] (3 mg/kg), 23%; in assay [1] (10 mg/kg), 23%.

In the case of `O[C@@H]1[C@H](O)[C@@H](CCl)O[C@H]1n1cnc2c(NCC3(c4ccccc4)CC3)ncnc21` [Example 5, 5'-Deoxy-5'-chloro-N6-((1-phenylcyclopropyl)methyl)adenosine], on adenosine A2 receptor, the IC50 came out at 420 nM.

For `OC[C@H]1O[C@@H](n2cnc3c(NCC4(c5ccc(Cl)cc5)CC4)ncnc32)[C@H](O)[C@@H]1O` [Example 12, N6-((1-(4-Chlorophenyl)cyclopropyl)methyl)adenosine], the IC50 at adenosine A2 receptor turned out to be 1200 nM. Moreover, the “Maximum BP ↓ MAP” value in assay [1] (10 mg/kg) is listed as 23%.

For the compound `OC[C@H]1O[C@@H](n2cnc3c(NCC4(c5cccc(Cl)c5)CC4)ncnc32)[C@H](O)[C@@H]1O` [Example 2, N6-((1-(3-Chlorophenyl)cyclopropyl)methyl)adenosine], on adenosine A2 receptor, the half-maximal inhibitory concentration (IC50) amounted to 200 nM.

Take `OC[C@H]1O[C@@H](n2cnc3c(NCC4(c5cccs5)CC4)ncnc32)[C@H](O)[C@@H]1O` [Example 3, N6-((1-Thien-2-ylcyclopropyl)methyl)adenosine]: the concentration for half-maximal inhibition (IC50) on adenosine A2 receptor was determined as 8.6 nM. Besides, in assay [1] (3 mg/kg), the “Maximum BP ↓ MAP” value is reported as 43%.

Turning to `O[C@@H]1[C@H](O)[C@@H](CCl)O[C@H]1n1cnc2c(NCC3(c4cccs4)CC3)ncnc21` [Example 6, 5'-Chloro-5'-deoxy-N6-((1-thien-2-ylcyclopropyl)methyl)adenosine], on adenosine A2 receptor, the 50% inhibitory concentration (IC50) turned out to be 67 nM.

For the compound `OC[C@H]1O[C@@H](n2cnc3c(NCC4(c5cccc(Cl)c5)CCC4)ncnc32)[C@H](O)[C@@H]1O` [Example 8, N6-((1-(3-Chlorophenyl)cyclobutyl)methyl)adenosine], the half-maximal inhibitory concentration (IC50) at adenosine A2 receptor is 320 nM.

Take `OC[C@H]1O[C@@H](n2cnc3c(NCC4(c5ccccc5)CCCCC4)ncnc32)[C@H](O)[C@@H]1O` [Example 11, N6-((1-Phenylcyclohexyl)methyl)adenosine]: the IC50 at adenosine A2 receptor stood at 3200 nM. In assay [1] (10 mg/kg), the “Maximum BP ↓ MAP” value came out at 5%.

With `OC[C@H]1O[C@@H](n2cnc3c(NCC4(c5ccccc5)CCC4)ncnc32)[C@H](O)[C@@H]1O` [Example 7, N6-((1-Phenylcyclobutyl)methyl)adenosine], the IC50 on adenosine A2 receptor is 150 nM. Moreover, the “Maximum BP ↓ MAP” value in assay [1] (10 mg/kg) is recorded as 32%.

For the compound `OC[C@H]1O[C@@H](n2cnc3c(NCC4(c5ccccc5)CCCC4)ncnc32)[C@H](O)[C@@H]1O` [Example 10, N6-((1-Phenylcyclopentyl)methyl)adenosine], the IC50 at adenosine A2 receptor came out at 460 nM. In addition, the “Maximum BP ↓ MAP” value in assay [1] (10 mg/kg) is 10%.

As for `OC[C@H]1O[C@@H](n2cnc3c(NCC4(c5cccs5)CCC4)ncnc32)[C@H](O)[C@@H]1O` [Example 9, N6-((1-Thien-2-ylcyclobutyl)methyl)adenosine], the IC50 on adenosine A2 receptor is 87 nM. Moreover, the “Maximum BP ↓ MAP” value in assay [1] (3 mg/kg) amounted to 10%.

A word on the IC50: it is the concentration at which inhibition is half-maximal.
